Results reported in patent EP1054594B1, “INOTROPIC AND DIURETIC EFFECTS OF EXENDIN AND GLP-1” (AMYLIN PHARMACEUTICALS, INC., priority 1998, dated 2007).

What was measured:
[1] = Diuretic effects of GLP-1 or exendin in anesthetized rats (urine flow, sodium excretion, urinary potassium after intravenous bolus); assay type: in vivo, Male, Harlan Sprague Dawley rats
Method: Surgical preparation: The preparation used here was as described in Young et al., (Drug Dev Res. 37:231-248, 1996), but modified by the addition of unilateral ureteral cannulation. Anesthesia was induced with 5% halothane, maintained with 2% halothane during surgery and with 0.7 to 1% thereafter. Tracheotomy and cannulation of a femoral artery, saphenous vein and a single ureter were performed. […] The venous line was used for drug administration. Total saline infusion rate was kept at 4 mL/hr.
Observations are expressed as the percent of baseline, defined as the mean of measurements made in the 30 min prior to starting peptide or vehicle infusion. Data are expressed as mean±SEM. n=5-6.
Unilateral urine flow was measured by weighing the 15-minute output of the cannulated ureter. Total urine flow was estimated as twice this amount.
Treatments: To obtain dose-responses, peptides were dissolved in 0.15 M NaCl and administered as 0.1 ml bolus.

[2] = Arterial blood pressure and dP/dt in conscious rats by telemetry; assay type: in vivo, Male, Harlan Sprague Dawley rats; conditions: single intraperitoneal (ip) injection (100 µl)
Excerpt: Insertion of Transducers: Male, Harlan Sprague Dawley rats were anesthetized with halothane and the abdominal aorta exposed after laparotomy. According to procedures detailed in the "Pressure Telemetry" manual from Data Sciences Inc., pressure transducer/transmitters were secured in place on the abdominal wall with the catheter tip in the abdominal aorta ~2mm above bifurcation. Following closure, the animals then recovered to allow at least 7 days of stable recordings. Baseline data were collected during the 7+ days after surgery.
The transmitted signals were recorded via telemetry and stored on a personal computer. Rate of pressure change, dP/dt, was calculated by software provided by Data Sciences.

## CC[C@H](C)[C@H](NC(=O)[C@H](Cc1ccccc1)NC(=O)[C@H](CCC(=O)O)NC(=O)[C@H](CCCCN)NC(=O)[C@H](C)NC(=O)[C@H](C)NC(=O)[C@H](CCC(N)=O)NC(=O)CNC(=O)[C@H](CCC(=O)O)NC(=O)[C@H](CC(C)C)NC(=O)[C@H](Cc1ccc(O)cc1)NC(=O)[C@H](CO)NC(=O)[C@H](CO)NC(=O)[C@@H](NC(=O)[C@H](CC(=O)O)NC(=O)[C@H](CO)NC(=O)[C@@H](NC(=O)[C@H](Cc1ccccc1)NC(=O)[C@@H](NC(=O)CNC(=O)[C@H](CCC(=O)O)NC(=O)[C@H](C)NC(=O)[C@@H](N)Cc1c[nH]cn1)[C@@H](C)O)[C@@H](C)O)C(C)C)C(=O)N[C@@H](C)C(=O)N[C@@H](Cc1c[nH]c2ccccc12)C(=O)N[C@@H](CC(C)C)C(=O)N[C@H](C(=O)N[C@@H](CCCCN)C(=O)NCC(=O)N[C@@H](CCCNC(=N)N)C(N)=O)C(C)C [GLP-1]
[1]
  sodium excretion: increased
[2]
  cardiac contractility (dP/dt): increase
  mean arterial pressure: increase
